Measurements published in ChEMBL document CHEMBL3593215, “Design, synthesis and antiproliferative activities of novel benzamides derivatives as HDAC inhibitors” (Eur J Med Chem, 2015).

How the values were obtained:
[1] = system: HCT-116; assay: Cytotoxicity against human HCT116 cells assessed as inhibition of cell proliferation after 72 hrs by MTT assay; format: functional, cell-based; conditions: HCT-116, 72 h
[2] = system: A549; assay: Cytotoxicity against human A549 cells assessed as inhibition of cell proliferation after 72 hrs by MTT assay; format: functional, cell-based; conditions: A549, 72 h
[3] = system: MCF7; assay: Cytotoxicity against human MCF7 cells assessed as inhibition of cell proliferation after 72 hrs by MTT assay; format: functional, cell-based; conditions: MCF7, 72 h
[4] = biological target: T1, Histone deacetylase 1 (Homo sapiens, UniProt Q13547); assay: Inhibition of HDAC1 (unknown origin) preincubated for 5 mins followed by fluorogenic substrate addition measured after 30 mins by microplate reader analysis
T1 sequence (Q13547 whole entry): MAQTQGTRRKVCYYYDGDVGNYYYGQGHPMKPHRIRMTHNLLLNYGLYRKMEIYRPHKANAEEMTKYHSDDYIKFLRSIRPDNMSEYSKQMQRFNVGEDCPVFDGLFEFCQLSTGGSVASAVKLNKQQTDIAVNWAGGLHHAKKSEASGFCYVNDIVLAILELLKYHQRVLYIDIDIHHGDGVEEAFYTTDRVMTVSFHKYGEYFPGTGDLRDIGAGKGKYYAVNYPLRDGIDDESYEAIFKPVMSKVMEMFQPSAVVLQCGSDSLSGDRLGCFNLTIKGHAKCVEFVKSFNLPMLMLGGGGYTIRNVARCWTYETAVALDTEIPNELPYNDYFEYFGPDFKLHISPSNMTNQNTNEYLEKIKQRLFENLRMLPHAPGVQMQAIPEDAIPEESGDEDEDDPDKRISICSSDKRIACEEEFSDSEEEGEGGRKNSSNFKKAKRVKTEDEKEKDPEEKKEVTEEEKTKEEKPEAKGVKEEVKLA

[5] = Oral bioavailability in Sprague-Dawley rat at 25 mg/kg; format: ADME, organism-based; conditions: in vivo
[6] = Tmax in Sprague-Dawley rat at 25 mg/kg, po; format: ADME, organism-based; conditions: in vivo
[7] = Elimination half life in Sprague-Dawley rat at 5 mg/kg, iv; format: ADME, organism-based; conditions: in vivo, read-out: beta t1/2 (converted)
[8] = biological target: T1, Histone deacetylase 1; assay: Potency index, ratio of MS-275 IC50 to compound IC50 for HDAC1 (unknown origin)
[9] = system: A549; assay: Potency index, ratio of MS-275 IC50 to compound IC50 for human A549 cells; format: functional
[10] = AUCinfinity_obs in Sprague-Dawley rat at 25 mg/kg, po; format: ADME, organism-based; set-up: dose 25 mg/kg, time infinity, route oral; conditions: in vivo
[11] = Elimination half life in Sprague-Dawley rat at 25 mg/kg, po; format: ADME, organism-based; conditions: in vivo, read-out: beta t1/2 (converted)
[12] = AUClast in Sprague-Dawley rat at 25 mg/kg, po; format: ADME, organism-based; set-up: dose 25 mg/kg, route oral, time 0 - last; conditions: in vivo

Structure (SMILES) | IC50 [1] | IC50 [2] | IC50 [3] | IC50 [4] | bioavailability [5] | Tmax [6] | half-life [7] | Ratio IC50 [8] | Ratio IC50 [9] | AUC(0-inf) [10] | half-life [11] | AUC(0-t) [12]
Nc1ccc(F)cc1NC(=O)c1ccc(CNC(=O)/C=C/c2cnc3cccnn23)cc1 | 4.29 µM | 0.812 µM | 11 µM | 0.137 µM | – | – | – | – | – | – | – | –
Nc1ccccc1NC(=O)c1ccc(CCNC(=O)/C=C/c2cnc3ccccn23)cc1 | 4.5 µM | 1.47 µM | 9.44 µM | 0.217 µM | – | – | – | – | – | – | – | –
Nc1ccccc1NC(=O)c1ccc(CNC(=O)/C=C/c2cnc3cccnn23)cc1 | 1.26 µM | 0.723 µM | 2.87 µM | 0.118 µM | 76% | 1.17 h | 1.87 h | 2 | 5 | 8.61 µg·h/mL | 8.22 h | 6.78 µg·h/mL
Nc1cc(F)ccc1NC(=O)c1ccc(CNC(=O)/C=C/c2cnc3cccnn23)cc1 | 2.26 µM | 0.791 µM | 5.51 µM | 0.131 µM | – | – | – | – | – | – | – | –
Nc1ccccc1NC(=O)c1ccc(CCNC(=O)/C=C/c2c[nH]c3ccccc23)cc1 | 1.57 µM | 1.28 µM | 5.02 µM | 0.169 µM | – | – | – | – | – | – | – | –
Nc1ccccc1NC(=O)c1ccc(CNC(=O)OCc2cccnc2)cc1 [ENTINOSTAT] | 5.1 µM | 3.13 µM | 7.88 µM | – | – | – | – | – | – | – | – | –
Nc1ccccc1NC(=O)c1ccc(CNC(=O)/C=C/c2c[nH]c3ccccc23)cc1 | 1.22 µM | 0.649 µM | 2.92 µM | 0.12 µM | – | – | – | 2 | – | – | – | –
Nc1ccccc1NC(=O)c1ccc(CNC(=O)/C=C/c2cnc3ccccn23)cc1 | 2.3 µM | 0.832 µM | 4.13 µM | 0.129 µM | – | – | – | – | – | – | – | –
Cc1nc2ccccn2c1/C=C/C(=O)NCc1ccc(C(=O)Nc2ccccc2N)cc1 | 1.43 µM | 1.3 µM | 6.22 µM | 0.173 µM | – | – | – | – | – | – | – | –
Nc1ccccc1NC(=O)c1ccc(CCNC(=O)/C=C/c2cnc3cccnn23)cc1 | 2.3 µM | 1.15 µM | 4.67 µM | 0.154 µM | – | – | – | – | – | – | – | –
Cc1nc2ccccn2c1/C=C/C(=O)NCCc1ccc(C(=O)Nc2ccccc2N)cc1 | 1.96 µM | 1.46 µM | 6.8 µM | 0.178 µM | – | – | – | – | – | – | – | –
